A short description of data set [1]: Sweetness linger sensory evaluation by expert panel (protocol of Example A). It counts as in vivo, human. More on the design: key: 0=no sweetness linger; 1=very slight sweetness linger; 2=slight sweetness linger; 3=moderate sweetness linger; 4=moderately high sweetness linger; 5=high sweetness linger. The procedure: In a particular embodiment, a panel of assessors is used to measure the reduction of sweetness linger. Briefly described, a panel of assessors (generally 8 to 12 individuals) is trained to evaluate sweetness perception and measure sweetness at several time points from when the sample is initially taken into the mouth until 3 minutes after it has been expectorated. […] A decrease in score for a time point measured after the sample has cleared the mouth indicates there has been a reduction in sweetness perception.
Generally, the method of measuring sweetness comprises taking a 10 mL sample into the mouth, holding the sample in the mouth for 5 seconds and gently swirling the sample in the mouth, rating the sweetness intensity perceived at 5 seconds, expectorating the sample (without swallowing following expectorating the sample), rinsing with one mouthful of water (e.g., vigorously moving water in mouth as if with mouth wash) and expectorating the rinse water, rating the sweetness intensity perceived immediately upon expectorating the rinse water, waiting 45 seconds and, while waiting those 45 seconds, identifying the time of maximum perceived sweetness intensity and rating the sweetness intensity at that time (moving the mouth normally and swallowing as needed), rating the sweetness intensity after another 10 seconds, rating the sweetness intensity after another 60 seconds (cumulative 120 seconds after rinse), and rating the sweetness intensity after still another 60 seconds (cumulative 180 seconds after rinse). Between samples take a 5 minute break, rinsing well with water to clear the mouth.
(§1) An exemplary method of sensory evaluation is provided in the following protocol, similar to that described hereinabove. In this test protocol, none of the samples were swallowed. All samples were expectorated and the mouth was rinsed with water after the tasting. In step 1, the 10% sucrose control sample was tasted by distributing ca. 10 mL of sample quickly throughout the oral cavity, wherein the maximal “Sweetness Intensity” was measured. This intensity is defined as a 10 on a 0-15 scale where 0 is defined as no perceptible sweetness and 15, the sweetness of 15% sucrose. Immediately upon sensing maximal sweetness, the sample was expectorated, the mouth was rinsed with water and the rate of sweetness decay (“Sweetness Linger”) was measured, where attention was focused on the sweetness 3-4 min after the water rinse. The sweetness linger was rated by a panel of experts in the sensory evaluation of foods and beverages using the following scale: 0=no sweetness linger, 1=very slight sweetness linger, 2=slight sweetness linger, 3=moderate sweetness linger, 4=moderately high sweetness linger, 5=high sweetness linger. After sample tasting was complete, a salty oyster cracker was chewed followed by a water rinse, and at least 5 minutes followed before tasting the next sample.
The “Sweetness Linger” rating for sucrose observed by this protocol was defined as 0. Experimental samples were tasted by the same protocol, always allowing sufficient time between samples to ensure re-equilibration of the sensory system. Re-tasting of control samples during the course of the experiment was allowed and encouraged.
The comparison taste test was performed between two controls and addition of sweet taste improving additive on the onset and/or sweetness linger.
Where there are ranges provided in the examples, a number of beverages comprising the NHPS, such as rebaudioside-A (REBA), were made 5-7 levels from the top to the bottom range, using a 1:1 dilution of the corresponding sweet taste improving compositions. The sweetness linger rating reported was the most sugar-like in sweetness linger (the lowest numerical value) attained of all the samples (i.e., the shortest sweetness linger). The tasting protocol and sensory scores described in the exemplary protocol of Example A were used in the Examples of Set B. […]

Data set [2] in a line: Sweetness level as sucrose equivalent. It counts as in vivo, human. The procedure: as §1
The format of data set [3] is physicochemical. The procedure:
A solution of rebaudioside A (>97% pure by HPLC) was prepared in double distilled water (12.5 gm in 50 mL, 25% concentration) by stirring the mixture at 40° C. for 5 minutes. An amorphous form of rebaudioside A was formed by immediately using the clear solution for spray drying with the Lab-Plant spray drier SD-04 instrument (Lab-Plant Ltd., West Yorkshire, U.K.). The solution was fed through the feed pump into the nozzle atomizer which atomized it into a spray of droplets with the help of a constant flow of nitrogen/air. […] This dry powder (11-12 g, H2O 6.74%) was discharged continuously from the drying chamber and was collected in a bottle.

Some results are limits rather than exact numbers.

`OC[C@H]1O[C@@](CO)(O[C@H]2O[C@H](CO)[C@@H](O)[C@H](O)[C@H]2O)[C@@H](O)[C@@H]1O` [sugar, sucrose]: the sweetness linger rating in data set [1] (control: 8 g of sugar in 100 ml of citrate buffer) was 0; in data set [1] (control: 10 g in 100 ml of carbon treated water), 0; in data set [1] (control: 10 g of sugar in 100 ml carbon treated water, phosphoric acid to pH 2.4-2.5), 0.
For “mono-ammonium glycyrrhizic acid salt hydrate”, the sweetness level in data set [2] (375 mg in one liter of carbon-treated water) was 4 % sucrose equivalent. This compound also had a sweetness linger in data set [1] (control: 375 mg in one liter of carbon-treated water) of 5.
For rebaudioside A, the “sucrose equivalent of sweetness” value in data set [2] (180 ppm REBA) worked out at 5 % sucrose; in data set [2] (400 ppm REBA in citric acid/potassium citrate composition) it was 8 g sucrose. The sweetness linger rating in data set [1] (control: 400 ppm REBA in citric acid/potassium citrate composition equivalent to diet lemon-lime beverage) is 5; in data set [1] (control: 500 ppm REBA in carbon-treated water, phosphoric acid to pH 2.4-2.5), 5.
For the compound rebaudioside A [Form 4], the “solubility in water at room temperature” value in data set [3] is reported as greater than 35.0%.

For the origin of these results see patent US9011956B2, “Natural high-potency sweetener compositions with improved temporal profile and/or flavor profile, methods for their formulation, and uses” (The Coca-Cola Company, priority 2005, dated 2015).
